Consider 19 compounds from patent US20210387978A1, “CYCLOBUTYL DIHYDROQUINOLINE SULFONAMIDE COMPOUNDS” (AMGEN INC., priority 2020, published 2021).

As a reminder, the IC50 is the concentration that gives 50% inhibition.

The target in one data set is T1, Human Nav1.7 (Homo sapiens, UniProt Q15858).
T1 construct: expressed in transfected cells; host or cells: Spiking HEK cells (without Kir2.1 transfection)
As to the kind of experiment: IonWorks Barracuda (IWB) automated patch clamp assay. In kind it is cell-based. The note with it: human Nav1.7 currents, HEK cells, population patch-clamp, state- and use-dependent voltage protocol; read-out: hNaV1.7 IWB-U IC50. As to the method:
Ionaworks Barracuda […] Automated Patch Clamp Assay (Same Protocol for Both Human and Mouse)
Human Nav1.7 currents were recorded in population patch-clamp mode with the IWB automated electrophysiology system (Molecular Devices, LLC, Sunnyvale, Calif.). Spiking HEK cells (without Kir2.1 transfection) were cultured and prepared for recordings as previously described for IonWorks Quattro testing^1. The external solution consisted of the following (in mM): NaCl 140, KCl 5, CaCl2 2, MgCl2 1, HEPES 10, and glucose 11, pH 7.4, with N-methyl-D-glucamine at 320 mOsmol. […] From a holding potential of −110 mV, currents were elicited by a train of 26 depolarizations of 150 ms duration to −20 mV at a frequency of 5 Hz. Cells were then clamped to −20 mV for a period of 4 minutes in the presence of a single concentration of test compound. Following this compound incubation period, cells were clamped to −110 mV for three seconds to recover unbound channels and put through the same 26 pulse voltage protocol as above. Peak inward current during the 26th pulse to −20 mV in the presence of compound was divided by the peak inward current evoked by the 26th pulse to −20 mV in the absence of compound to determine percent inhibition. Concentration-response curves of percent inhibition as a function of concentration were generated to calculate IC50 values as described in Kornecook, T. J.; Yin, R.; Altmann, S.; et al. Pharmacologic Characterization of AMG8379, a Potent and Selective Small Molecule Sulfonamide Antagonist of the Voltage-Gated Sodium Channel NaV1. 7.
The potency of the compounds of the present invention were evaluated on human Nav1.7 channels using the above described IonWorks Barracuda automated electrophysiology platform that evaluates the ability of compounds to block sodium conductance through Nav1.7 channels. A voltage-protocol that prosecutes both state-dependent as well as use-dependent inhibition was used as these modes of action are thought to be more relevant for the native state of Nav1.7 channels in pain sensing neurons in vivo.

The test system of another data set is CYP3A4. As to the kind of experiment: Human CYP 3A4 Induction Assay (mRNA, cryopreserved human hepatocytes). In kind it is in vitro ADME. Conditions: 10 uM test compound, 72 hours, percent of control (POC), rifampin positive control. The text has this: Human CYP 3A4 Induction Assay

T1 sequence (Q15858 whole entry): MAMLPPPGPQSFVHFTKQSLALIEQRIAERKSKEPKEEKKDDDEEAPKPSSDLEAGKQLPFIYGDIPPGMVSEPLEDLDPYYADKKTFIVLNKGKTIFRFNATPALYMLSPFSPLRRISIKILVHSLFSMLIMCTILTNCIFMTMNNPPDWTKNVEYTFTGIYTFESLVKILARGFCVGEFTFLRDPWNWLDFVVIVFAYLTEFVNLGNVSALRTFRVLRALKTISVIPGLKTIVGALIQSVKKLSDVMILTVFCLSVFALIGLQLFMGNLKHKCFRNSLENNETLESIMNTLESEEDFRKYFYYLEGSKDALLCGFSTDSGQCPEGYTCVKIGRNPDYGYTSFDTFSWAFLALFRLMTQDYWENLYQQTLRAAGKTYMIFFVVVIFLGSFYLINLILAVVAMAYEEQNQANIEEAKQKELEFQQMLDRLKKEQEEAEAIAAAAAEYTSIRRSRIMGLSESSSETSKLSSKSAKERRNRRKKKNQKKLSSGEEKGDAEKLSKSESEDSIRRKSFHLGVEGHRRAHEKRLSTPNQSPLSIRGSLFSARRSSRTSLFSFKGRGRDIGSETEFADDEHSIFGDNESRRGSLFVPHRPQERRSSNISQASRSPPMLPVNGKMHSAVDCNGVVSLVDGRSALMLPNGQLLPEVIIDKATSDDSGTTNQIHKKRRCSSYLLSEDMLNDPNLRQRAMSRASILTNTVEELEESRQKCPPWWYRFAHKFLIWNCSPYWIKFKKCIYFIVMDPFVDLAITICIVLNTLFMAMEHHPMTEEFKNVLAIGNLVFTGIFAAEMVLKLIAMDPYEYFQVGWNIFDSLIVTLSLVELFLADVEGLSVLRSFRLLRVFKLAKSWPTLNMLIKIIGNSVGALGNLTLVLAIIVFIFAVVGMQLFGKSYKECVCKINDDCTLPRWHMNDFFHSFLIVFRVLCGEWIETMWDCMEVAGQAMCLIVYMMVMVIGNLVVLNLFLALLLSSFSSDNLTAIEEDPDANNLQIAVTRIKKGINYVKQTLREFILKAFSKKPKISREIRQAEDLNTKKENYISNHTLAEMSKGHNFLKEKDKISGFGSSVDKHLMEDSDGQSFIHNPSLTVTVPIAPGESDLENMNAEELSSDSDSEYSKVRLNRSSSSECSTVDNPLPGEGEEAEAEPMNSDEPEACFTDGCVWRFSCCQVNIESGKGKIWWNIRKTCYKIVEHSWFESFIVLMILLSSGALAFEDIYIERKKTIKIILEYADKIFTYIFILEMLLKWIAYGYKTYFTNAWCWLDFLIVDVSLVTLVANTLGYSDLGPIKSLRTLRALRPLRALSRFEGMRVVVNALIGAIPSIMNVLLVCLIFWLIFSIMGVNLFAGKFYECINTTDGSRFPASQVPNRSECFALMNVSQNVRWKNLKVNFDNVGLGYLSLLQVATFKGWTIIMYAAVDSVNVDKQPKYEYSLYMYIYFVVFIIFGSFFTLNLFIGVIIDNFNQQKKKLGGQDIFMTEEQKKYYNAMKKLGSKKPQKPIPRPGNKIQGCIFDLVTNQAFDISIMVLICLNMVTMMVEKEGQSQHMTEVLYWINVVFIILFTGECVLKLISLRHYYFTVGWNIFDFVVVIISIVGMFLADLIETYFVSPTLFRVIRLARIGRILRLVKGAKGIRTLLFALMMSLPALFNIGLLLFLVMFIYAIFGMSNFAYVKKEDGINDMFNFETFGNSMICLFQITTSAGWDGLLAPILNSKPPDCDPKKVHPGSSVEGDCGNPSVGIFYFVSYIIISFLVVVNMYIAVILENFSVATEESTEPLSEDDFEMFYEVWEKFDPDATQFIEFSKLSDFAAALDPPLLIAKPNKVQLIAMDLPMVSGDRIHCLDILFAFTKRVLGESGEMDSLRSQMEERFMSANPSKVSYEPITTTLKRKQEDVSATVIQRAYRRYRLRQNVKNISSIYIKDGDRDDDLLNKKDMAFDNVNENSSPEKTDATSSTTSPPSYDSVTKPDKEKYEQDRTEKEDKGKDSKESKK

With `COc1cc([C@H]2C[C@H](C(F)(F)F)C2)c(F)cc1-n1c(=O)ccc2cc(S(=O)(=O)Nc3ncccn3)ccc21` (atropisomer, axis not shown; (P)) [Example 15, trans-(P)-1-(5-fluoro-2-methoxy-4-(3-(trifluoromethyl)cyclobutyl)phenyl)-2-oxo-N-(pyrimidin-2-yl)-1,2-dihydroquinoline-6-sulfonamide], the concentration for half-maximal inhibition (IC50) on Human Nav1.7 was found to be 17 nM. Besides, in the data set with CYP3A4, the “Hu CYP3A4 mRNA Induction (10 uM POC)” value came to 36%.
For `COc1cc(C2CCC2)c(C)cc1-n1c(=O)ccc2cc(S(=O)(=O)Nc3cccnn3)ccc21` (atropisomer, axis not shown; (P)) [Example 30, (P)-1-(4-cyclobutyl-2-methoxy-5-methylphenyl)-2-oxo-N-(pyridazin-3-yl)-1,2-dihydroquinoline-6-sulfonamide], at Human Nav1.7, the IC50 turned out to be 137 nM.
Consider `COc1cc(C2CCC2)c(Cl)cc1-n1c(=O)ccc2cc(S(=O)(=O)Nc3ncco3)ccc21` (atropisomer, axis not shown; (P)) [Example 32, (P)-1-(5-chloro-4-cyclobutyl-2-methoxyphenyl)-N-(oxazol-2-yl)-2-oxo-1,2-dihydroquinoline-6-sulfonamide], for which the concentration for half-maximal inhibition (IC50) at Human Nav1.7 stood at 10 nM. Moreover, the “Hu CYP3A4 mRNA Induction (10 uM POC)” value in the data set on CYP3A4 was found to be 88%.
As to `COc1cc(C2CCC2)c(C)cc1-n1c(=O)ccc2cc(S(=O)(=O)Nc3ncco3)ccc21` (atropisomer, axis not shown; (P)) [Example 34, (P)-1-(4-cyclobutyl-2-methoxy-5-methylphenyl)-N-(oxazol-2-yl)-2-oxo-1,2-dihydroquinoline-6-sulfonamide], on Human Nav1.7, the IC50 is 28 nM.
The same measure, in the same setting: to `COc1cc([C@H]2C[C@H](C(F)(F)F)C2)ccc1-n1c(=O)ccc2cc(S(=O)(=O)Nc3ccon3)ccc21` (atropisomer, axis not shown; (P)) [Example 35, trans-(P)—N-(isoxazol-3-yl)-1-(2-methoxy-4-(3-(trifluoromethyl)cyclobutyl)phenyl)-2-oxo-1,2-dihydroquinoline-6-sulfonamide] belongs 20 nM; to `COc1cc([C@H]2C[C@H](C(F)(F)F)C2)ccc1-n1c(=O)ccc2cc(S(=O)(=O)Nc3ncccn3)ccc21` (atropisomer, axis not shown; (P)) [Example 36, trans-(P)-1-(2-methoxy-4-((1R,3R)-3-(trifluoromethyl)cyclobutyl)phenyl)-2-oxo-N-(pyrimidin-2-yl)-1,2-dihydroquinoline-6-sulfonamide], 14 nM.
Consider `COc1cc([C@H]2C[C@H](C(F)(F)F)C2)c(C)cc1-n1c(=O)ccc2cc(S(=O)(=O)Nc3ncccn3)ccc21` (atropisomer, axis not shown; (P)) [Example 37, trans-(P)-1-(2-methoxy-5-methyl-4-(3-(trifluoromethyl)cyclobutyl)phenyl)-2-oxo-N-(pyrimidin-2-yl)-1,2-dihydroquinoline-6-sulfonamide], for which the “Hu CYP3A4 mRNA Induction (10 uM POC)” value in the data set on CYP3A4 was determined as 49.51%.
For the compound `COc1cc([C@H]2C[C@H](C(F)(F)F)C2)ccc1-n1c(=O)ccc2cc(S(=O)(=O)Nc3cccnn3)ccc21` (atropisomer, axis not shown; (P)) [Example 38, trans-(P)-1-(2-methoxy-4-(3-(trifluoromethyl)cyclobutyl)phenyl)-2-oxo-N-(pyridazin-3-yl)-1,2-dihydroquinoline-6-sulfonamide], the IC50 at Human Nav1.7 was 21 nM.
Same read-out and setting: for `COc1cc([C@H]2C[C@H](C(F)(F)F)C2)c(F)cc1-n1c(=O)ccc2cc(S(=O)(=O)Nc3cccnn3)ccc21` (atropisomer, axis not shown; (P)) [Example 39, trans-(P)-1-(5-fluoro-2-methoxy-4-(3-(trifluoromethyl)cyclobutyl)phenyl)-2-oxo-N-(pyridazin-3-yl)-1,2-dihydroquinoline-6-sulfonamide] the value was 11 nM; for `COc1cc([C@H]2C[C@H](C(F)(F)F)C2)c(F)cc1-n1c(=O)ccc2cc(S(=O)(=O)Nc3ccon3)c(F)cc21` (atropisomer, axis not shown; (P)) [Example 40, (P)-7-fluoro-1-(5-fluoro-2-methoxy-4-((1R,3R)-3-(trifluoromethyl)cyclobutyl)phenyl)-N-(isoxazol-3-yl)-2-oxo-1,2-dihydroquinoline-6-sulfonamide], 5 nM; for `COc1cc(C2CC(F)(F)C2)c(F)cc1-n1c(=O)ccc2cc(S(=O)(=O)Nc3ccon3)c(F)cc21` (atropisomer, axis not shown; (P)) [Example 41, (P)-1-(4-(3,3-difluorocyclobutyl)-5-fluoro-2-methoxyphenyl)-7-fluoro-N-(isoxazol-3-yl)-2-oxo-1,2-dihydroquinoline-6-sulfonamide], 11 nM.
Same read-out and setting: for `COc1cc(C23CC(C(F)(F)F)(C2)C3)c(F)cc1-n1c(=O)ccc2cc(S(=O)(=O)Nc3ccon3)ccc21` (atropisomer, axis not shown; (P)) [Example 42, (P)-1-(5-fluoro-2-methoxy-4-(3-(trifluoromethyl)bicyclo[1.1.1]pentan-1-yl)phenyl)-N-(isoxazol-3-yl)-2-oxo-1,2-dihydroquinoline-6-sulfonamide] the value was 6 nM; for `COc1cc([C@H]2C[C@H](C(F)(F)F)C2)c(F)cc1-n1c(=O)ccc2cc(S(=O)(=O)Nc3ncco3)ccc21` (atropisomer, axis not shown; (P)) [Example 43, Trans-(P)-1-(5-Fluoro-2-Methoxy-4-(3-(Trifluoromethyl)Cyclobutyl)Phenyl)-N-(Oxazol-2-Yl)-2-Oxo-1,2-Dihydroquinoline-6-Sulfonamide], 7 nM.
Regarding `COc1cc([C@H]2C[C@H](C(F)(F)F)C2)c(F)cc1-n1c(=O)ccc2c(F)c(S(=O)(=O)Nc3ccon3)ccc21` (atropisomer, axis not shown; (P)) [Example 46, trans-(P)-5-fluoro-1-(5-fluoro-2-methoxy-4-(3-(trifluoromethyl)cyclobutyl)phenyl)-N-(isoxazol-3-yl)-2-oxo-1,2-dihydroquinoline-6-sulfonamide], on Human Nav1.7, the concentration for half-maximal inhibition (IC50) is 8 nM. For the same compound, the “Hu CYP3A4 mRNA Induction (10 uM POC)” value in the data set on CYP3A4 came out at 6.6%.
For the compound `COc1cc(C23CC(C(F)(F)F)(C2)C3)c(F)cc1-n1c(=O)ccc2cc(S(=O)(=O)Nc3ncccn3)ccc21` (atropisomer, axis not shown; (P)) [Example 47, (P)-1-(5-fluoro-2-methoxy-4-(3-(trifluoromethyl)bicyclo[1.1.1]pentan-1-yl)phenyl)-2-oxo-N-(pyrimidin-2-yl)-1,2-dihydroquinoline-6-sulfonamide], the concentration for half-maximal inhibition (IC50) on Human Nav1.7 was 8 nM.
Consider `COc1cc(C2CC(F)(F)C2)c(Cl)cc1-n1c(=O)ccc2cc(S(=O)(=O)Nc3ccon3)ccc21` (atropisomer, axis not shown; (P)) [Example 48, (P)-1-(5-chloro-4-(3,3-difluorocyclobutyl)-2-methoxyphenyl)-N-(isoxazol-3-yl)-2-oxo-1,2-dihydroquinoline-6-sulfonamide], for which, at Human Nav1.7, the half-inhibitory concentration (IC50) is 10 nM.
On the same count and under the same terms, to `COc1cc([C@H]2C[C@H](C(F)(F)F)C2)c(Cl)cc1-n1c(=O)ccc2cc(S(=O)(=O)Nc3ncco3)ccc21` (atropisomer, axis not shown; (P)) [Example 49, trans (P)-1-(5-chloro-2-methoxy-4-((1R,3R)-3-(trifluoromethyl)cyclobutyl)phenyl)-N-(oxazol-2-yl)-2-oxo-1,2-dihydroquinoline-6-sulfonamide] belongs 10 nM; to `COc1cc([C@H]2C[C@H](OC(F)(F)F)C2)c(F)cc1-n1c(=O)ccc2cc(S(=O)(=O)Nc3ccon3)ccc21` (single isomer, unassigned) [Example 45, trans-(P)-1-(5-fluoro-2-methoxy-4-(3-(trifluoromethoxy)cyclobutyl)phenyl)-N-(isoxazol-3-yl)-2-oxo-1,2-dihydroquinoline-6-sulfonamide], 8 nM; to `COc1cc(C2CC2)c(F)cc1-n1c(=O)ccc2cc(S(=O)(=O)Nc3ccon3)ccc21` [Compound X, 1-(4-cyclopropyl-5-fluoro-2-methoxyphenyl)-N-(isoxazol-3-yl)-2-oxo-1,2-dihydroquinoline-6-sulfonamide, reference compound], 48 nM.
